Laboratory results from patent US20070082870A1, “Pharmaceutical formulations of cyclodextrins and antifungal azole compounds” (priority 2005, published 2007).
Values after ≈ are worked out from the molar mass of the structure shown. Each block holds one compound with its values, some of them ahead of it.

Assays:
[1] = Equilibrium solubility of ketoconazole in water and buffers at 10 wt % HBenBCD; format: physicochemical
Procedure: The following is a typical procedure for determining the solubility of a drug in a given solvent. To each well of a 2 mL 96-well polypropylene mixing plate was added excess drug (ca. 5-10 mg). […] The cavities on the loading plate were arranged so that they corresponded to the individual wells of the 96-well mixing plate. A line of drug was placed at one end of the loading plate and a glass plate was used to distribute the drug into each cavity. The 96-well mixing plate was placed on the loading plate then inverted and tapped so that the drug dropped into the appropriate well of the mixing plate.
(§1) To each well of the pre-loaded 96-well mixing plate was added 300-500 μL of water or buffer (blanks with no CD) or the appropriate CD solution. Typically, each determination was in triplicate. The blanks were used to determine the intrinsic solubility (So) of drug in that solution and the well containing the CD solutions were used to determine the solubility of drug due to CD (Sw). After addition of the stock solutions, the plate was sealed using aluminum foil with a non-volatile adhesive on one surface. The plate was placed on a rotary shaking plate (Helidolph Titramax 1000) and the plate was shaken at 800-1200 rpm at 23° C.±2° for 48-72 h. During the mixing period, the plate was inspected to insure that each well contained undissolved, excess drug. Additional drug was added if necessary.
(§2) Following the mixing period, the solutions in each well were transferred to the corresponding wells of a 96-well 2 mL multiscreen filter plate using a multi-channel pipette. The bottom of each well was a hydrophilic membrane (Millipore Corporation). The filter plate was placed on top of a vacuum manifold and the solutions were filtered at ca. 20 mm Hg into the corresponding wells of a 2 mL storage plate. The duration of the filtration period was typically no more than 60 seconds. The storage plate was then sealed with a silicon mat and samples were removed for analysis as appropriate.
The drug content in each well can be determined by a number of methods. Ultraviolet spectroscopy (UV) or high pressure liquid chromatography (HPLC) is preferred. In the present example, UV spectroscopy was used. […] Measurements were made using a SpectraMax Plus 384 Molecular Devices multi-well plate reader. Absorbance was converted to drug concentration using the appropriate absorbtivity for the drug. The drug concentrations were then exported to the appropriate software package for final analysis.
The general protocol described in Example 1 was utilized to determine the equilibrium solubility of ketoconazole in water and buffers at 10 wt % HBenBCD concentration.

[2] = format: physicochemical; conditions: pH 3
Procedure: (§3) The following is a typical procedure for determining the solubility of a drug in a given solvent. To each well of a 2 mL 96-well polypropylene mixing plate was added excess drug (ca. 5-10 mg). The drug was typically added by using a metal loading plate having cavities that will hold an approximate predetermined amount of drug. The cavities on the loading plate were arranged so that they corresponded to the individual wells of the 96-well mixing plate. A line of drug was placed at one end of the loading plate and a glass plate was used to distribute the drug into each cavity. The 96-well mixing plate was placed on the loading plate then inverted and tapped so that the drug dropped into the appropriate well of the mixing plate.
(§4) To each well of the pre-loaded 96-well mixing plate was added 300-500 μL of water or buffer (blanks with no CD) or the appropriate CD solution. […]
(§5) The drug content in each well can be determined by a number of methods. […] Typically, 10-20 μL of drug solution was transferred to the corresponding well of a 96-well measurement plate (UV-STAR plates from Greiner with a spectral range of 190-400 nm) and diluted with 1/1 water/ethanol so that the absorbance was in the linear response range. Measurements were made using a SpectraMax Plus 384 Molecular Devices multi-well plate reader. Absorbance was converted to drug concentration using the appropriate absorbtivity for the drug. […]

[3] = physchem; format: physicochemical; conditions: for solubility: 23 °C, thermodynamic from solid
Procedure: as §3, §1, §2
(§6) The drug content in each well can be determined by a number of methods. Ultraviolet spectroscopy (UV) or high pressure liquid chromatography (HPLC) is preferred. In the present example, UV spectroscopy was used. Typically, 10-20 μL of drug solution was transferred to the corresponding well of a 96-well measurement plate (UV-STAR plates from Greiner with a spectral range of 190-400 nm) and diluted with 1/1 water/ethanol so that the absorbance was in the linear response range. Measurements were made using a SpectraMax Plus 384 Molecular Devices multi-well plate reader. Absorbance was converted to drug concentration using the appropriate absorbtivity for the drug. The drug concentrations were then exported to the appropriate software package for final analysis.
The general protocol described in Example 1 was utilized to determine the equilibrium solubility of voriconazole in water and buffers at 10 wt % HBenBCD concentration.

[4] = Equilibrium solubility of clotrimazole in water, 0 to ca. 25 wt % cyclodextrin; format: physicochemical
Procedure: as §3, §4, §5

[5] = Equilibrium solubility of itraconazole in water and pH 3 phosphate buffer, 0 to 25 wt % cyclodextrin; format: physicochemical
Procedure: as §3, §4, §5

[6] = Equilibrium solubility of itraconazole in water and buffers at 10 wt % cyclodextrin; format: physicochemical; conditions: water
Procedure: Stock solutions of cyclodextrins were prepared by dissolving an accurately weighed amount of previously dried cyclodextrin in water or in buffer to give a final cyclodextrin concentration of 10 wt %. In this example, the cyclodextrins were HBenBCD, HPBCD, and SBEBCD. The buffers were 0.05 M pH3 phosphate, 0.05 M pH 3 citrate, and 0.05 M pH 4.8 acetate.
as §3, §1, §2, §6

- Sw/So ([1]; pH 3 D,L-tartrate): 2.7
- Sw/So ([1]; pH 3 D-tartrate): 3.2
- Sw/So ([1]; pH 3 L-tartrate): 2.8
- Sw/So ([1]; pH 3 citrate): 3.3
- Sw/So ([1]; pH 3 phosphate): 4.3
- Sw/So ([1]; pH 4.8 acetate): 95.5
- Sw/So ([1]; pH 7.3 phosphate): 548.9
- Sw/So ([1]; water): 600.4
Compound: CC(=O)N1CCN(c2ccc(OC[C@H]3CO[C@](Cn4ccnc4)(c4ccc(Cl)cc4Cl)O3)cc2)CC1 (racemic) [ketoconazole]

- more voriconazole solubilized by HBenBCD than SBEBCD [2]: 25%
- Sw/So [3]: 9.8
- solubility ([3]; pH 1.2, aqueous with cosolvent or surfactant or cyclodextrin, Sw (solubility with CD)): 10.2 mg/mL (≈ 29.2 mM)
- solubility ([3]; pH 1.2, simulated gastric fluid, So (intrinsic solubility)): 3.2 mg/mL (≈ 9.16 mM)
- Sw/So ([3]; pH 1.2): 3.2
- Sw/So ([3]; pH 7.3): 9.6
Compound: C[C@@H](c1ncncc1F)[C@](O)(Cn1cncn1)c1ccc(F)cc1F (single isomer, unassigned) [voriconazole]

- Sw/So for HBenBCD, fold greater than that for HPBCD ([4]; ca. 25 wt % CD): 2.4 X
- Sw/So ([4]; ca. 25 wt % HBenBCD): 12.3
Compound: Clc1ccccc1C(c1ccccc1)(c1ccccc1)n1ccnc1 [clotrimazole]

Compound: itraconazole
- Sw/So for HBenBCD, fold greater than that for HPBCD ([5]; ca. 25 wt % CD): 4 X
- Sw/So ([5]; ca. 25 wt % HBenBCD): 132
- Sw/So ([6]; 10 wt % HBenBCD): 17.2
- solubility of itraconazole due to CD (Sw) ([6]; 10 wt % HBenBCD): 0.515 ng/mL
- Sw/So ([6]; 10 wt % HPBCD): 3.8
- Sw/So ([6]; 10 wt % SBEBCD): 4.2
- intrinsic solubility (So) of itraconazole ([6]; no cyclodextrin): 0.03 ng/mL
